Converted amounts (≈) assume the structure as drawn.
Test: Solubility of triamcinolone acetonide in receptor fluid
Format: physicochemical
Conditions: not told, aqueous with cosolvent or surfactant or cyclodextrin; PBS at pH 7.4 with 2 wt % hydroxypropyl-beta-cyclodextrin
Description: Receptor fluid preparation: Based on the results of solubility studies, a receptor fluid of phosphate buffered saline (PBS) at pH 7.4 with 2 wt % hydroxypropyl-beta-cyclodextrin (HPBCD) was chosen. […] The preparation and degassing of the receptor fluid was prepared at an appropriate pH and degassing was carried out by filtering the receptor fluid through a ZapCap CR 0.2 μm membrane while pulling vacuum.

Q: With `CC1(C)O[C@@H]2C[C@H]3[C@@H]4CCC5=CC(=O)C=C[C@]5(C)[C@@]4(F)[C@@H](O)C[C@]3(C)[C@]2(C(=O)CO)O1` [triamcinolone acetonide] as the compound, how does the solubility read?
A: The solubility was ~0.282 mg/mL (≈ 649 µM).

— US11660313B2, “Compositions and methods for application over skin” (Shiseido Company, Limited, priority 2015, dated 2023)
